In article PMC10917667, “Targeted protein degradation via intramolecular bivalent glues” (Nature, 2024):

Target: T1, BRD4 (BRD4^Tandem) (Homo sapiens, UniProt O60885)
T1 construct: BRD4^Tandem (residues 43–459), BD1 and BD2 with native linker; with DCAF16–DDB1(ΔBPB)–DDA1
Assay: cryo-EM ternary structure ([…] Å); alphaLISA displacement ([…] with DCAF16, […] alone); ITC; TR-FRET
Type: binding

Q: With `COC(=O)C[C@@H]1N=C(c2ccc(-c3ccc(C(=O)NCc4ccc(S(=O)(=O)Nc5ccc(C)c6c(C#N)c[nH]c56)cc4)cc3)cc2)c2c(sc(C)c2C)-n2c(C)nnc21` [IBG1] as the compound, how does the IC50 read?
A: The IC50 was 0.0128 µM.
